Assay results: patent publication US7696185B2, “Peptidomimetic inhibitors of PSMA, compounds comprising them, and methods of use” (Cancer Targered Technology LLC, priority 2006, dated 2010)
Blank lines part the entries; values can stand above or below the molecule they belong to.

Tests used:
[1] = test system: LNCaP cells; assay: Fluorescence/confocal microscopy labeling of PSMA-expressing cells; assay type: cell-based; settings: PSMA-expressing prostate cancer cells; fluorescence microscopy
Procedure: (§1) These compounds have been subsequently derivatized with amine-reactive fluorescent dyes (FIG. 9) to specifically label PSMA-expressing prostate cancer cells. […] Confocal microscopy was conducted on both LNCaP and PC3 prostate cancer cells after treatment with L6-V1-21 and propidium iodide.
(§2) While propidium iodide stained the nuclei of both cell lines, only the surface of the PSMA-expressing LNCaP 6 cells were fluorescently labeled with L6-V1-21. The intensely labeled sites on these LNCaP cells are hypothesized to be locations in which PSMA has aggregated.
(§3) To confirm that LW-54-F5EX was specific for PSMA-expressing cells, both LNCaP and PC3 cells were treated with this compound. While DAPI (4′,6-diamidino-2-phenylindole) stained nuclear DNA in both cell lines, only LNCaP cells were fluorescently labeled with LW-54-F5EX.
(§4) In that experiment, both LNCaP and PC3 cells were treated with LW-54-5FAMX. While DAPI (4′,6-diamidino-2-phenylindole) stained nuclear DNA in both cell lines, only LNCaP cells were fluorescently labeled with LW-54-5FAMX.

[2] = test system: PC3 cells; assay: Fluorescence/confocal microscopy labeling of cells that do not express PSMA (negative control); assay type: cell-based; settings: fluorescence microscopy
Procedure: as §1, §2, §3, §4

[3] = target: T1, purified PSMA (Homo sapiens, UniProt Q04609); assay: PMSA Inhibition Assay (HPLC, PAB-Glu-γ-Glu substrate); assay type: biochemical; settings: for IC50: read-out: IC50 against PSMA; for inhibitory potency / affinity for PSMA (in words): purified PSMA from LNCaP cells
T1 construct: against purified PSMA from LNCaP cells by our published method; endogenous in cells; host or cells: LNCaP cells
Procedure: Adapted from, Maung, J.; Mallari, J. P.; Girtsman, T. A.; Wu, L. Y.; Rowley, J. A.; Santiago, N. M.; Brunelle, A.; Berkman, C. E. Probing for a Hydrophobic a Binding Register in Prostate-Specific Membrane Antigen with Phenylalkylphosphonamidates. […] Med. Chem. 2004, 12, 4969.
Working solutions of the substrate (N-[4-(phenylazo)benzoyl]-glutamyl-g-glutamic acid, PAB-Glu-γ-Glu) and all inhibitors were made in TRIS buffer (50 mM, pH 7.4). Working solutions of purified PSMA were appropriately diluted in TRIS buffer (50 mM, pH 7.4) to provide from 15% to 20% conversion of substrate to product in the absence of inhibitor. A typical incubation mixture (final volume 250 μL) was prepared by the addition of either 25 μL of an inhibitor solution or 25 μL TRIS buffer (50 mM, pH 7.4) to 175 μL TRIS buffer (50 mM, pH 7.4) in a test tube. A volume of the 25 μL PAB-Glu-γ-Glu (100 μM) was added to the above solution. The enzymatic reaction was initiated by the addition of 25 μL of the PSMA working solution. In all cases, the final concentration of PAB-Glu-γ-Glu was 10 μM while the enzyme was incubated with five serially-diluted inhibitor concentrations to provide a range of inhibition from 10% to 90% inhibition. The reaction was allowed to proceed for 15 min with constant shaking at 37° C. and was terminated by the addition of 25 μL methanolic TFA (2% trifluoroacetic acid by volume in methanol) followed by vortexing. The quenched incubation mixture was quickly buffered by the addition of 25 μL K2HPO4 (0.1 M), vortexed, and centrifuged (10 min at 7000 g). An 85 μL aliquot of the resulting supernatant was subsequently quantified by HPLC. IC50 values were calculated using KaleidaGraph 3.6 (Synergy Software).
PABGγG and its hydrolytic product (PABG) were separated and quantified using an analytical reversed-phase HPLC column (Lichrosphere C18 5 μm, 150×4.6 mm; Phenomenex, Torrence, Calif.) with a mobile phase consisting of ACN/potassium phosphate [25 mM, pH 2.0 (adjusted with H3PO4)] at a respective volume ratio of 40:60.

[4] = target: T2, PSMA (Homo sapiens, UniProt Q04609); assay: Inhibitor induced PSMA homodimer formation (Western blots); assay type: biochemical; settings: treatment of PSMA with inhibitor
Source text: As shown in the representative example in FIG. 6, covalent PSMA dimer formation mediated by T33 is both concentration dependent and time-dependent. […] Although we have not determined the mechanism of inhibition for T33, L36 and MP1D, it is clear that these agents represent a unique class of inhibitors of PSMA that may be used as covalent delivery vehicles specific for PSMA-expressing cancer cells. Based upon a cursory literature review, this is the first design and preparation of irreversible covalent modifiers of PSMA.

[5] = target: T2, PSMA; assay: Time-dependence and reversibility of PSMA inhibition (100-fold dilution of inhibited enzyme); assay type: biochemical; settings: for reversibility of PSMA inhibition: recovery of PSMA activity after 100-fold dilution of inhibited enzyme
[6] = target: T3, MMP-2 (Homo sapiens, UniProt P08253); assay: MMP-2 inhibition; assay type: biochemical; settings: concentrations up to 10 μM
T3 sequence (P08253 110-660): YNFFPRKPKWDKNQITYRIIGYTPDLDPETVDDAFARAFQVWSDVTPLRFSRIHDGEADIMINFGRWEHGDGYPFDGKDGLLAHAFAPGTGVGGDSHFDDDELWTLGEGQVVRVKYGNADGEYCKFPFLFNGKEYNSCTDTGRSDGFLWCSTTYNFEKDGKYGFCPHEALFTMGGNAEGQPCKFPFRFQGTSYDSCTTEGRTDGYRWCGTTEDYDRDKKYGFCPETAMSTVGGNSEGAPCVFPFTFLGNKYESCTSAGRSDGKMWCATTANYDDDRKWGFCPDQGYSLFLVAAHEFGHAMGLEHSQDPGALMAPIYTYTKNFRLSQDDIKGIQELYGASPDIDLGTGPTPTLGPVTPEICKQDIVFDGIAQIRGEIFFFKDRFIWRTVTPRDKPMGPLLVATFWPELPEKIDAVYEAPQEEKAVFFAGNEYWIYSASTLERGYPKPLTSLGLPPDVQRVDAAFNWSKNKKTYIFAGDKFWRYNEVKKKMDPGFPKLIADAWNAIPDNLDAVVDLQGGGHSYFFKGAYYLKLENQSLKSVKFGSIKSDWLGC

[7] = target: matrix metalloproteinase-9 (MMP-9) (Homo sapiens, UniProt P14780); assay: MMP-9 inhibition (specificity study); assay type: biochemical; settings: preliminary study; read-out: Ki against MMP-9
Procedure: To determine that the design of the phosphoramidate inhibitors of the invention is specific to PSMA, a preliminary study was conducted with representative compounds from the T33 analog library (FIG. 1) with matrix metalloproteinase-9 (MMP-9). The MMP enzymes are zinc-dependent endopeptidases involved in the degradation of extracellular matrices.

T2 sequence (Q04609 whole entry): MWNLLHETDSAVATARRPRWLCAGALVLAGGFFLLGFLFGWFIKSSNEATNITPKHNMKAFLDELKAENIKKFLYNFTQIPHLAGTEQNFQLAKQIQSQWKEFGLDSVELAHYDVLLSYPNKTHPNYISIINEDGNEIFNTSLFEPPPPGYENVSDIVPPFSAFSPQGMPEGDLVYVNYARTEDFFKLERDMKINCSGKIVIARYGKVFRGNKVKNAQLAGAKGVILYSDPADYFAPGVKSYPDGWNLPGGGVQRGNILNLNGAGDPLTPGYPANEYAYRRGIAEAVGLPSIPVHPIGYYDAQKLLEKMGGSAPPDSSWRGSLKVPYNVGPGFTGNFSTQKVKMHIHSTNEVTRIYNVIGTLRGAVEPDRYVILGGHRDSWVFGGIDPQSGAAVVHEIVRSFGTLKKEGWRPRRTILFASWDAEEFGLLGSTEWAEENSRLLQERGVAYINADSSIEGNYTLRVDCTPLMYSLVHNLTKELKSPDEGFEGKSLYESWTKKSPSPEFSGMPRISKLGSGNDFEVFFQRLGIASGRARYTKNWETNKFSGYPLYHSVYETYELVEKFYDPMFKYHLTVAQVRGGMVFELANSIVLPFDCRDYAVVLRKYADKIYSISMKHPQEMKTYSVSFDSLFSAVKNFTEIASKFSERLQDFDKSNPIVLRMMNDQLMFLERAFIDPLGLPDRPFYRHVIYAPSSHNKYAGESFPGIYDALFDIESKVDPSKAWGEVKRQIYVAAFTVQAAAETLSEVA
T1 sequence (Q04609 whole entry): as above
Chain of matrix metalloproteinase-9 (MMP-9) (P14780 94-707, species assumed): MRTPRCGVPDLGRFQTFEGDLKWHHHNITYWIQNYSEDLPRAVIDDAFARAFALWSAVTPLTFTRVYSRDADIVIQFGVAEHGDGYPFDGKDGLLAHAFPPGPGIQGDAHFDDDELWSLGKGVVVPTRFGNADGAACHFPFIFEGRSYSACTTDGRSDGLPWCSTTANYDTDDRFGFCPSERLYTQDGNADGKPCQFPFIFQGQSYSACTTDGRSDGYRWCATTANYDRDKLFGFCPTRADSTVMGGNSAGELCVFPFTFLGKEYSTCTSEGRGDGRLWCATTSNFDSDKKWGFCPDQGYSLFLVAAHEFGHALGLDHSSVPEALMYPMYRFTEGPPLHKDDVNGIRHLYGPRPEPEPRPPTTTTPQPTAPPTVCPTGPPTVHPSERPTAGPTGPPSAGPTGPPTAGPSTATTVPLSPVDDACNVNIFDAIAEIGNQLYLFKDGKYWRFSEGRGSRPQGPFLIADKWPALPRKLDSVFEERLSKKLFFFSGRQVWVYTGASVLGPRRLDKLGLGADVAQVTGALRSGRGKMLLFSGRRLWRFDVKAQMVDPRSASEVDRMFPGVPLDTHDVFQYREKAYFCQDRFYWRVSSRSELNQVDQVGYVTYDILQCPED

covalent PSMA homodimer formation [4]: formation of covalent PSMA homodimers | inhibition of MMP-2 [6]: no inhibition | time-dependence of PSMA inhibition [5]: time-dependent PSMA inhibition | reversibility of PSMA inhibition [5]: irreversible | inhibitory potency / affinity for PSMA (in words) [3]: superior inhibitory potency | IC50 [3]: < 0.05 µM
Compound: O=C(O)CC[C@H](NP(=O)(O)OC[C@H](NC(=O)c1ccccc1)C(=O)O)C(=O)O [Compound T33, N-{[(2S)-2-(benzoylamino) -2-carboxyethoxy](hydroxy)phosphoryl}-L-glutamic acid]

reversibility of PSMA inhibition [5]: irreversible inhibitors
Compound: NCc1ccc(C(=O)N[C@@H](COP(=O)(O)N[C@@H](CCC(=O)O)C(=O)O)C(=O)O)cc1 [LW-39, N-{[(2S)-2-{[4-(aminomethyl)benzoyl]amino}-2-carboxyethoxy](hydroxy)phosphoryl}-L-glutamic acid]

Ki [7]: 5000 µM
Compound: O=C(O)CC[C@H](NP(=O)(O)OCc1ccc(-c2ccccc2)cc1)C(=O)O [NC-2-29, N-[(biphenyl-4-ylmethoxy) (hydroxy)phosphoryl]-L-glutamic acid]

Continued, molecule first:

Compound: O=C1C=CC2C(=C1)Oc1cc(O)ccc1C2c1ccc(NC(=S)N[C@@H](COP(=O)(O)N[C@@H](CCC(=O)O)C(=O)O)C(=O)O)cc1C(=O)O (stereo partly drawn) [Compound L6-V1-21, N-[{(2S)-2-carboxy-2-[({[3-carboxy-4-(6-hydroxy-3-oxo-9,9a-dihydro-3H-xanthen-9-yl)phenyl]amino}carbonothioyl)amino]ethoxy} (hydroxy)phosphoryl]-L-glutamic acid]
fluorescent labeling of LNCaP cells [1]: extensive cell-surface labeling | fluorescent labeling of PC3 cells [2]: no green fluorescent labeling | IC50 [3]: 0.085 µM

Compound: CN(C(=O)c1ccccc1)[C@@H](COP(=O)(O)N[C@@H](CCC(=O)O)C(=O)O)C(=O)O [Compound L36, N-[{(2S)-2-[benzoyl(methyl)amino]-2-carboxyethoxy} (hydroxy)phosphoryl]-L-glutamic acid]
covalent PSMA homodimer formation [4]: formation of covalent PSMA homodimers | reversibility of PSMA inhibition [5]: irreversible | inhibitory potency / affinity for PSMA (in words) [3]: superior inhibitory potency

Compound: O=C1C=CC2C(=C1)Oc1cc(O)ccc1C2c1ccc(NC(=O)CSCCC(=O)N[C@@H](CCC(=O)N[C@@H](COP(=O)(O)N[C@@H](CCC(=O)O)C(=O)O)C(=O)O)C(=O)O)cc1C(=O)O (stereo partly drawn) [LW-54-F5EX, N-{3-[(2-{[3-carboxy-4-(6-hydroxy-3-oxo-9,9a-di hydro-3H-xanthen-9-yl)phenyl]amino}-2-oxoethyl)thio]propanoyl}-L-γ-glutamyl -O-[{[(1S)-1,3-dicarboxypropyl]amino}(hydroxy)phosphoryl]-L-serine]
fluorescent labeling of LNCaP cells [1]: extensive cell-surface labeling | fluorescent labeling of PC3 cells [2]: no green fluorescent labeling

Compound: O=C(O)CC[C@H](NP(=O)(O)OCCCCc1ccccc1)C(=O)O [MP1D, N-[hydroxy(4-phenylbutoxy)phosphoryl]-L-glutamic acid]
reversibility of PSMA inhibition [5]: irreversible inhibition | inhibitory potency / affinity for PSMA (in words) [3]: considerable affinity is maintained

Compound: O=C(O)CC[C@H](NP(=O)(O)OCC(CCc1ccccc1)C(=O)O)C(=O)O (stereo partly drawn) [MP1E, N-[(2-carboxy-4-phenylbutoxy)(hydroxy)phosphoryl] -L-glutamic acid]
reversibility of PSMA inhibition [5]: irreversible
